Data taken from patent US7557088B2, “Methods and compositions for treating conditions” (NeoPro Labs, LLC, priority 2006, dated 2009).
Where “and” joins values, the source holds several entries; their conditions need not be identical. Equal entries are not always repeated. Residues, ends and D or L forms follow the SMILES beside them. No end group written: not given here.

Assays:
[1] = test system: post-surgical pain in rats; test: oral administration, von Frey withdrawal response after plantar incision; assay type: in vivo; settings: for Withdrawal Response Post-Dose / Post-Dose change of pain threshold (arrow): morphine sulfate 3.7 mg/kg; for Withdrawal Response Post-Dose: peptides 100 mg/kg; for Withdrawal Response Post-Surgery: 150 min after surgery, before dosing; for Withdrawal Response Pre-Surgery: baseline 15 min pre-surgery; for Post-Dose change of pain threshold (arrow): peptides 100 mg/kg oral; for effect when administered with aspirin / effect when administered with Naloxone / effect on pain threshold: oral; for effect when administered with aspirin: ASA 1 mg/kg co-administered (Groups 4, 6, 9); for effect when administered with Naloxone: Naloxone 2 mg/kg co-administered (Groups 3, 5, 8); for effect on pain threshold: with 0.9% saline as Treatment 1 (Groups 2, 7, 10)
Excerpt: Table VI below illustrates results from the oral administration of SEQ ID NO: 1 and SEQ ID NO: 153 and the effects of Naloxone and aspirin on their ability to decrease the pain threshold.
In this experiment animals were weighed and placed in the group numbers designated on the left hand column. Each group is composed of 10 rats. Animals were anesthetized with 1.8 to 4% isofluorane (delivered via a nose cone) and each received an intramuscular injection of penicillin (30,000 IU) in the triceps muscle after preparation of the foot with betadine and alcohol (SOPs VET-1 and VET-8). A 1 cm long incision of skin and fascia was made in the plantar aspect (heel, midfoot or distal pad area) of the right hind paw. No underlying muscle was incised. After hemostasis with gentle pressure, the incision was closed with one or two sutures (5-0 silk/nylon ophthalmic suture on a taper TF needle or equivalent). The wound site was covered with a mixture of polymixin B, neomycin, and bacitracin ointment. After surgery, rats were allowed to recover in their cages until behavioral testing. Prior to surgery, rats were placed individually on an elevated wire mesh floor covered with a clear plastic cage top and allowed to acclimate. Baseline pain behavior was measured as follows: Withdrawal responses to mechanical stimulation were determined using von Frey filaments applied from underneath the cage through openings (12×12 mm in the plastic mesh floor to an area adjacent to the intended incision). Each von Frey filament (Target force of 0.008 g to 300 g) was applied once starting with 0.008 g filament and continuing until a withdrawal response occurred or 300 g force was reached. The median force producing a response, determined from three tests given over a 10-min period was considered the withdrawal threshold. Rats were tested for responses 15 minutes pre-surgery, 150 minutes after surgery, and 20 minutes after treatment. Oral treatments 1 and 2 were co-administered 180 minutes after surgery. The test article/vehicle administration and pain measurements were as per Table below.
As illustrated by Table VI, SEQ ID NOs: 1 and 153 attenuate sensitization to von Frey mechanical stimuli after oral application. The response to the von Frey monofilament is in gram. Arrow up (1) indicates an increase in the pain threshold and arrow down (1) indicates a decrease in the threshold. Zero indicates no change.

[2] = feeding behavior of rats exposed to high levels of the peptide; assay type: in vivo; settings: at least 3 days
Excerpt: Pain is basically managed by two classes of drugs. […] The peptide has no anti-inflammatory properties and this differentiates it pharmacologically from analgesics in the NSAID's.

[3] = solubility of test article in 0.9% saline; assay type: physicochemical; settings: 100 mg/mL: 1.4 mL of saline added to 141.5 mg, room temperature
Description: The test article was SEQ ID NO: 1, a white powder, which was delivered in 0.9% saline. The test article formulations were prepared on the day of study and kept at room temperature until dosing. 100 mg/kg at 1 mL/kg=100 mg/mL 1.4 mL of saline added to 141.5 mg of test article, soluble.

[4] = test system: Pseudomonas syringae pv tomato, DC3000; test: systemic resistance of Arabidopsis plants to a virulent bacterial pathogen; assay type: in vivo, Arabidopsis ecotype Columbia (Col-0); settings: 20 μl salicylic acid 1 mM and 20 μl SEQ ID NO: 15 applied to the leaves
Description: Seeds of Arabidopsis ecotype Columbia (Col-0) were planted in potting soil. Plants were cultivated in a growth chamber with 10-h d (200 μmol m^−2s^−1 at 22° C.) and 14-h night (18° C.) cycles and 80% RH. Once a week plants were supplied with water and modified one-half strength Hoagland nutrient solution: 2 mM KNO 5 mM Ca(NO3)2 and trace elements, pH 7.
A virulent plant pathogen, Pst Pseudomonas syringae pv tomato, DC3000 was grown at 28° C. on King's medium B containing 40 mg/L tetracycline. Plants were inoculated with 1×10^7 cfu/ml of the pathogen in 0.01% Silwet L77 (v/v) (a surfactant) and distilled water 5 weeks after sowing. The bacterial suspension or a control solution (0.01% Silwet L77 in water) was then sprayed on the plant once.
Disease symptoms in Arabidopsis are water-soaked, spreading lesions, sometimes surrounded by chlorotic margin that eventually lead to yield loss and plant death.
To test the efficacy of SEQ ID NO: 15, some healthy and some disease plants were sprayed with salicylic acid in 0.01%. Silwet L77; some healthy and some disease plants were sprayed with SEQ ID NO: 15 in 0.01%. Silwet L77, and some healthy and some disease plants were sprayed with salicylic acid in combination with SEQ ID NO: 15 in 0.01%. Silwet L77. A control group of some healthy and some disease plants were sprayed with water in 0.01%. Silwet L77. […]

[5] = test system: Sauromatum guttatum appendix; test: heat production by Sauromatum guttatum appendix sections treated with 2,6-dihydroxybenzoic acid (2,6-DHBA); settings: second experiment, application up to 50 μM, data not shown
Description: In one example, using Sauromatum guttatum as the experimental module, on the day of inflorescence-opening, the Sauromatum appendix (a 20-40 cm-long, slender organ) becomes warm, reaching a 32° C. temperature (Skubatz et al., 1991, Plant Physiol. 95-1084-1088). The heat generated by the appendix is generated by the mitochondria. This mitochondrial activity can be triggered by the addition of phenolic compounds, including but not limited to, salicylic acid, aspirin, and 2,6-dihydroxybenzoic acid. Test agents can be applied to the plant and the plant's temperature may be monitored in vivo.
FIG. 6 illustrates modulation of heat generated by 2,6-dihydroxybenzoic acid in the presence of the Alzheimer's peptide, Aβ 1-42, SEQ ID NO: 49 and a plant gene derived sequence in the Sauromatum guttatum appendix. One day before heat-production, sections of the appendix were placed in different solutions containing 2,6-dihydroxybenzoic acid (2,6-DHBA) with or without SEQ ID NO: 2 (FLPSEFGVDVDR) and SEQ ID NO: 51. Heat-production was monitored with thermocouples attached to the sections. A section placed in distilled water that was not generated any heat is the control (water). […] The temperature was recorded every 5 min. […] This figure illustrates that these peptides modulate thermogenicity in plants as well as animals and act as mitochondrial modulators.

[6] = test system: opioid receptor; test: mechanism of action with Naloxone, antagonist of the opioid receptors (oral pain study); design: species or system rats; settings: inferred from in vivo Naloxone co-administration, no binding test
Description: When Naloxene was administered with SEQ ID NO: 153 (Group 8), the effects of SEQ ID NO: 153 were reduced (compare Group 8 to Group 10) but unlike the case of Morphine (Group 3), not completely eliminated.

[7] = 20 min after oral treatment, co-administered ASA 1 mg/kg
[8] = 20 min after oral treatment, co-administered Naloxone 2 mg/kg
[9] = group later given Treatment 1 0.9% Saline + Treatment 2
[10] = group later given Treatment 1 ASA 1 mg/kg + Treatment 2
[11] = group later given Treatment 1 Naloxone 2 mg/kg + Treatment 2
[12] = group later given Treatment 1 0.9% Saline 2 mL/kg + oral Treatment 2 (morphine sulfate 3.7 mg/kg or peptide 100 mg/kg)
[13] = co-administered Naloxone 2 mg/kg

Molecule	Withdrawal Response Post-Dose [1, 7]	Withdrawal Response Post-Dose [1, 8] [g]	Withdrawal Response Post-Surgery [1, 9]	Withdrawal Response Post-Surgery [1, 10] [g]	Withdrawal Response Post-Surgery [1, 11] [g]	Withdrawal Response Pre-Surgery [1, 12] [g]	Withdrawal Response Pre-Surgery [1, 10] [g]	Withdrawal Response Pre-Surgery [1, 11] [g]	Post-Dose change of pain threshold (arrow) [1, 13]	effect when administered with aspirin [1]	effect when administered with Naloxone [1]	effect on pain threshold [1]	systemic resistance to the virulent bacteria [4]	other results
CN1CC[C@]23c4c5ccc(O)c4O[C@H]2[C@@H](O)C=C[C@H]3[C@H]1C5.O=S(=O)(O)O [Morphine sulfate, reference compound]	5.5 ± 0.80 g	3.5 ± 0.24	3.8 ± 0.52 g	4.3 ± 0.41	3.7 ± 0.39	30.4 ± 3.29	21.9 ± 2.13	28.5 ± 4.53	0	aspirin reduced the effects of Morphine	the effect of Morphine is eliminated	the pain threshold is increased	–	Withdrawal Response Post-Dose ([1]; 20 min after oral treatment at 180 min after surgery, Treatment 1 0.9% Saline 2 mL/kg, listed as Morphine, sulfate): 6.6 g; Withdrawal Response Post-Dose ([1]; 20 min after oral treatment at 180 min after surgery, Treatment 1 0.9% Saline 2 mL/kg, sulfate): 6.6 ± 1.58 g
CC(C)C[C@H](NC(=O)[C@@H](N)Cc1ccccc1)C(=O)N1CCC[C@H]1C(=O)N[C@@H](CO)C(=O)O [SEQ ID NO: 1, Phe-Leu-Pro-Ser] (H-FLPS-OH; N-terminus and C-terminus assumed)	–	–	–	–	–	–	–	–	–	–	–	–	–	feeding behavior [2]: did not invoke an abnormal feeding behavior; solubility in saline [3]: soluble
O=C(O)c1ccccc1O [salicylic acid]	–	–	–	–	–	–	–	–	–	–	–	–	enough to trigger systemic resistance	–
FLPSEFGVDVDR [SEQ ID NO: 2]	–	–	–	–	–	–	–	–	–	–	–	–	–	heat generation by the peptide [5]: did not generate heat
SPLF [SEQ ID NO: 153]	5.7 g and 5.7 ± 0.56 g	4.7 ± 0.45	4.5 g and 4.5 ± 0.32 g	4.7 ± 0.56	4.5 ± 0.55	28.1 ± 3.02	29.2 ± 3.21	29.3 ± 4.00	0	improved effect	reduced	increases the pain threshold	–	binding to the opioid receptor relative to Morphine and Naloxone [6]: binds to the opioid receptor more tightly than Morphine, but less tightly than Naloxene; Withdrawal Response Post-Dose ([1]; 20 min after oral treatment at 180 min after surgery, Treatment 1 0.9% Saline 2 mL/kg): 5.0 g and 5.0 ± 0.41 g; Post-Dose change of pain threshold (arrow) ([1]; Treatment 1 0.9% Saline 2 mL/kg): 0
YGGFL [SEQ ID NO: 15]	–	–	–	–	–	–	–	–	–	–	–	–	enough to trigger systemic resistance	–
